From patent publication US20030171329A1, “Stable compositions comprising tezacitabine” (priority 2002, published 2003)

What was measured:
[1] = Effects of pH and storage temperature on stability of FMdC solutions (Example 1, HPLC); format: physicochemical; settings: for FMdC content: 1 mg/mL
Protocol: In this example the effects of pH and storage temperature on the stability of tezacitabine (FMdC) solutions was evaluated. FMdC solutions were made up at 1 mg/mL in aqueous sodium phosphate buffers at pH 1, 3, 5, 7 and 9, then filled in sealed glass ampoules and placed at 5°, 25°, and 45° C. FMdC content was assessed at various times using an HPLC method. The column was a PACK ODS column (YMC, Inc, Wilmington, Del.) with a mobile phase of 55/40/5 (v/v/v) 0.086M NaH2PO4 (pH 7)/0.05M 1-pentanesulfonic acid sodium salt/acetonitrile. Detection was by UV at 268 nm. Flow rate was 1.5 mL/min and injection volume was 10 μL.

[2] = Stability of FMdC at various concentrations in 100 mM sodium phosphate pH 9 (Example 3, HPLC); format: physicochemical
Protocol: In this study the stability of FMdC at various concentrations in 100 mM sodium phosphate pH 9 was studied. FMdC solutions were made up and pH adjusted to target with sodium hydroxide. Solution samples were placed in stoppered glass vials and stored at the various temperatures. […] Flow rate was 1.0 mL/min. FMdC solution samples were diluted in mobile phase to a nominal FMdC concentration of 80 μg/mL, then injected onto the column in a volume of 10 μL. Detection was by UV at 268 nm.

human and rodent tumors = settings: tumors of lung, colon, breast, prostate, pancreas, leukemias and lymphomas; cited from earlier work
[3] = FMdC 2 mg/mL, 100 mM sodium phosphate pH 9, 25° C., 0 mon
[4] = FMdC 2 mg/mL, 100 mM sodium phosphate pH 9, 25° C., 6 mon
[5] = FMdC 2 mg/mL, 100 mM sodium phosphate pH 9, 25° C., 9 mon
[6] = FMdC 2 mg/mL, 100 mM sodium phosphate pH 9, 25° C., 20 mon
[7] = FMdC 2 mg/mL, 100 mM sodium phosphate pH 9, 40° C., 0 mon
[8] = FMdC 2 mg/mL, 100 mM sodium phosphate pH 9, 40° C., 3 mon
[9] = FMdC 2 mg/mL, 100 mM sodium phosphate pH 9, 40° C., 6 mon
[10] = FMdC 2 mg/mL, 100 mM sodium phosphate pH 9, 40° C., 9 mon
[11] = FMdC 2 mg/mL, 100 mM sodium phosphate pH 9, 50° C., 0 mon
[12] = FMdC 2 mg/mL, 100 mM sodium phosphate pH 9, 50° C., 0.5 mon
[13] = FMdC 2 mg/mL, 100 mM sodium phosphate pH 9, 50° C., 1.0 mon
[14] = FMdC 2 mg/mL, 100 mM sodium phosphate pH 9, 50° C., 2.0 mon
[15] = FMdC 2 mg/mL, 100 mM sodium phosphate pH 9, 50° C., 3.0 mon
[16] = FMdC 10 mg/mL, 100 mM sodium phosphate pH 9, 25° C., 0 mon
[17] = FMdC 10 mg/mL, 100 mM sodium phosphate pH 9, 25° C., 2.8 mon
[18] = FMdC 10 mg/mL, 100 mM sodium phosphate pH 9, 25° C., 4.0 mon
[19] = FMdC 10 mg/mL, 100 mM sodium phosphate pH 9, 25° C., 6.5 mon
[20] = FMdC 10 mg/mL, 100 mM sodium phosphate pH 9, 25° C., 7.9 mon
[21] = FMdC 10 mg/mL, 100 mM sodium phosphate pH 9, 25° C., 16 mon
[22] = FMdC 10 mg/mL, 100 mM sodium phosphate pH 9, 25° C., 23 mon
[23] = FMdC 10 mg/mL, 100 mM sodium phosphate pH 9, 40° C., 0 mon
[24] = FMdC 10 mg/mL, 100 mM sodium phosphate pH 9, 40° C., 2.0 mon
[25] = FMdC 10 mg/mL, 100 mM sodium phosphate pH 9, 40° C., 3.0 mon
[26] = FMdC 10 mg/mL, 100 mM sodium phosphate pH 9, 40° C., 3.7 mon
[27] = FMdC 10 mg/mL, 100 mM sodium phosphate pH 9, 40° C., 4.1 mon
[28] = FMdC 10 mg/mL, 100 mM sodium phosphate pH 9, 50° C., 0 mon
[29] = FMdC 10 mg/mL, 100 mM sodium phosphate pH 9, 50° C., 0.3 mon
[30] = FMdC 10 mg/mL, 100 mM sodium phosphate pH 9, 50° C., 0.7 mon
[31] = FMdC 10 mg/mL, 100 mM sodium phosphate pH 9, 50° C., 0.9 mon
[32] = FMdC 10 mg/mL, 100 mM sodium phosphate pH 9, 50° C., 1.4 mon
[33] = FMdC 10 mg/mL, 100 mM sodium phosphate pH 9, 50° C., 2.1 mon

FMdC content ([1]; sodium phosphate pH 1, 5° C., 0 days): 100.0 % of initial
FMdC content ([1]; sodium phosphate pH 1, 5° C., 1 day): 93.2 % of initial
FMdC content ([1]; sodium phosphate pH 1, 5° C., 14 days): 70.0 % of initial
FMdC content ([1]; sodium phosphate pH 1, 5° C., 29 days): 47.1 % of initial
FMdC content ([1]; sodium phosphate pH 1, 25° C., 0 days): 100.0 % of initial
FMdC content ([1]; sodium phosphate pH 1, 25° C., 1 day): 45.7 % of initial
FMdC content ([1]; sodium phosphate pH 1, 25° C., 7 days): 4.5 % of initial
FMdC content ([1]; sodium phosphate pH 1, 45° C., 0 days): 100.0 % of initial
FMdC content ([1]; sodium phosphate pH 1, 45° C., 1 day): 3.9 % of initial
FMdC content ([1]; sodium phosphate pH 3, 5° C., 0 days): 100.0 % of initial
FMdC content ([1]; sodium phosphate pH 3, 5° C., 1 day): 89.4 % of initial
FMdC content ([1]; sodium phosphate pH 3, 5° C., 14 days): 73.3 % of initial
FMdC content ([1]; sodium phosphate pH 3, 5° C., 29 days): 51.7 % of initial
FMdC content ([1]; sodium phosphate pH 3, 25° C., 0 days): 100.0 % of initial
FMdC content ([1]; sodium phosphate pH 3, 25° C., 1 day): 50.5 % of initial
FMdC content ([1]; sodium phosphate pH 3, 25° C., 7 days): 4.7 % of initial
FMdC content ([1]; sodium phosphate pH 3, 45° C., 0 days): 100.0 % of initial
FMdC content ([1]; sodium phosphate pH 3, 45° C., 1 day): 4.4 % of initial
FMdC content ([1]; sodium phosphate pH 5, 5° C., 0 days): 100.0 % of initial
FMdC content ([1]; sodium phosphate pH 5, 5° C., 7 days): 95.8 % of initial
FMdC content ([1]; sodium phosphate pH 5, 5° C., 14 days): 98.2 % of initial
FMdC content ([1]; sodium phosphate pH 5, 5° C., 29 days): 93.5 % of initial
FMdC content ([1]; sodium phosphate pH 5, 25° C., 0 days): 100.0 % of initial
FMdC content ([1]; sodium phosphate pH 5, 25° C., 7 days): 73.0 % of initial
FMdC content ([1]; sodium phosphate pH 5, 25° C., 14 days): 56.3 % of initial
FMdC content ([1]; sodium phosphate pH 5, 25° C., 29 days): 28.6 % of initial
FMdC content ([1]; sodium phosphate pH 5, 45° C., 0 days): 100.0 % of initial
FMdC content ([1]; sodium phosphate pH 5, 45° C., 7 days): 2.5 % of initial
FMdC content ([1]; sodium phosphate pH 7, 5° C., 0 days): 100.0 % of initial
FMdC content ([1]; sodium phosphate pH 7, 5° C., 7 days): 100.8 % of initial
FMdC content ([1]; sodium phosphate pH 7, 5° C., 14 days): 100.6 % of initial
FMdC content ([1]; sodium phosphate pH 7, 5° C., 29 days): 99.8 % of initial
FMdC content ([1]; sodium phosphate pH 7, 25° C., 0 days): 100.0 % of initial
FMdC content ([1]; sodium phosphate pH 7, 25° C., 7 days): 100.4 % of initial
FMdC content ([1]; sodium phosphate pH 7, 25° C., 14 days): 99.4 % of initial
FMdC content ([1]; sodium phosphate pH 7, 25° C., 29 days): 98.8 % of initial
FMdC content ([1]; sodium phosphate pH 7, 45° C., 0 days): 100.0 % of initial
FMdC content ([1]; sodium phosphate pH 7, 45° C., 7 days): 96.5 % of initial
FMdC content ([1]; sodium phosphate pH 7, 45° C., 14 days): 92.0 % of initial
FMdC content ([1]; sodium phosphate pH 7, 45° C., 29 days): 82.3 % of initial
FMdC content ([1]; sodium phosphate pH 9, 5° C., 0 days): 100.0 % of initial
FMdC content ([1]; sodium phosphate pH 9, 5° C., 7 days): 100.4 % of initial
FMdC content ([1]; sodium phosphate pH 9, 5° C., 14 days): 100.8 % of initial
FMdC content ([1]; sodium phosphate pH 9, 5° C., 29 days): 100.4 % of initial
FMdC content ([1]; sodium phosphate pH 9, 25° C., 0 days): 100.0 % of initial
FMdC content ([1]; sodium phosphate pH 9, 25° C., 7 days): 100.5 % of initial
FMdC content ([1]; sodium phosphate pH 9, 25° C., 14 days): 99.4 % of initial
FMdC content ([1]; sodium phosphate pH 9, 25° C., 29 days): 100.4 % of initial
FMdC content ([1]; sodium phosphate pH 9, 45° C., 0 days): 100.0 % of initial
FMdC content ([1]; sodium phosphate pH 9, 45° C., 7 days): 100.1 % of initial
FMdC content ([1]; sodium phosphate pH 9, 45° C., 14 days): 98.7 % of initial
FMdC content ([1]; sodium phosphate pH 9, 45° C., 29 days): 96.5 % of initial
stability in words ([1]; low pH (pH 1 and 3), even under refrigeration): very unstable
stability in words ([1]; pH 9, compared with pH 1 to 7): most stable
stability in words ([2]; 25° C., 2 and 10 mg/mL in 100 mM sodium phosphate pH 9): stable for over eighteen months
FMdC [2, 3]: 100.0 % of initial
pH [2, 3]: 9.18
FMdC [2, 4]: 100.0 % of initial
pH [2, 4]: 9.00
FMdC [2, 5]: 100.5 % of initial
pH [2, 5]: 9.03
FMdC [2, 6]: 100.0 % of initial
pH [2, 6]: 9.00
FMdC [2, 7]: 100.0 % of initial
pH [2, 7]: 9.18
FMdC [2, 8]: 97.0 % of initial
pH [2, 8]: 8.89
FMdC [2, 9]: 92.5 % of initial
pH [2, 9]: 8.55
FMdC [2, 10]: 88.4 % of initial
pH [2, 10]: 8.44
FMdC [2, 11]: 100.0 % of initial
pH [2, 11]: 9.18
FMdC [2, 12]: 100.0 % of initial
pH [2, 12]: 8.84
FMdC [2, 13]: 97.4 % of initial
pH [2, 13]: 8.84
FMdC [2, 14]: 88.7 % of initial
pH [2, 14]: 8.39
FMdC [2, 15]: 80.4 % of initial
pH [2, 15]: 8.16
FMdC [2, 16]: 100.0 % of initial
pH [2, 16]: 9.29
FMdC [2, 17]: 98.9 % of initial
pH [2, 17]: 9.25
FMdC [2, 18]: 100.4 % of initial
pH [2, 18]: 9.17
FMdC [2, 19]: 99.3 % of initial
pH [2, 19]: 9.09
FMdC [2, 20]: 98.1 % of initial
pH [2, 20]: 9.06
FMdC [2, 21]: 97.3 % of initial
pH [2, 21]: 8.73
FMdC [2, 22]: 97.1 % of initial
pH [2, 22]: 8.74
FMdC [2, 23]: 100.0 % of initial
pH [2, 23]: 9.29
FMdC [2, 24]: 98.1 % of initial
pH [2, 24]: 8.60
FMdC [2, 25]: 95.8 % of initial
pH [2, 25]: 8.40
FMdC [2, 26]: 96.9 % of initial
pH [2, 26]: 8.19
FMdC [2, 27]: 94.9 % of initial
pH [2, 27]: 8.08
FMdC [2, 28]: 100.0 % of initial
pH [2, 28]: 9.29
FMdC [2, 29]: 99.6 % of initial
pH [2, 29]: 8.75
FMdC [2, 30]: 94.4 % of initial
pH [2, 30]: 8.24
FMdC [2, 31]: 89.5 % of initial
pH [2, 31]: 7.91
FMdC [2, 32]: 82.0 % of initial
pH [2, 32]: 7.52
FMdC [2, 33]: 67.4 % of initial
pH [2, 33]: 7.01
Structure (SMILES): Nc1ccn([C@@H]2O[C@H](CO)[C@@H](O)/C2=C\F)c(=O)n1 [FMdC, (E)-2′-deoxy-2′-(fluoromethylene)cytidine]
antitumor activity in animal studies (human and rodent tumors): exhibited activity
